{"source": "patent US6379959B1", "about": "“Metalocarboxypeptidase inhibitors and derived molecules used as antitumor agents” (Universitat Autonoma de Barcelona, priority 1996, dated 2002)", "test_system": "human pancreatic adenocarcinoma cell line Capan-1", "assay": "Proliferation test with tetrazolium salts, Capan-1 in medium with serum", "type": "cell-based", "details": "23 days", "method": "In this test, with the aim of determining whether the presence of PCI in the culture medium produces some effect on the growth in vitro of the cellular lines, the final amount of cells was evaluated after a specific number of days, in presence and absence of inhibitor. The final number of cells was determined by means of tetrazolium salts (kit EZ4U) which, being added to the cultures, are reduced by mitochondrial enzymes of the cells, producing derivatives of formazan of a different colour. The amount of formed derivatives depends on the number of existing cells.\n1. In a culture plate of 96 wells, in 48 of them, 5,000 cells were seed. Of these 48:\nIn 8 wells (control), 200 μL of full medium (DMEM+10%FBS) were added without PCI. […]\n2. The cells were kept in an incubator at 37° C., 87% of relative humidity and 10% of CO2. The medium contained in the wells was changed every 3-4 days. The old medium was sucked out with a Pasteur pipette. Medium free of PCI was added to the control wells and, to the others, a medium with identical concentration of PCI to which they had previously, was also added.\n3. After a specific number of days, the number of cells per well was evaluated by means of the following procedure:\nTo calculate the result of the test, the following was done: the average of the A620 of the blank ones was substracted from the A620 of each well. Immediately after, the result of the previous subtraction, as well as the average of the A450 of the blank ones was substracted from the A450 of each well. The result thus obtained is directly proportional to the amount of cells present in the well. Next, the average and the typical deviation was obtained from the results of the wells which had undergone identical treatment.\nThe effect of the presence of the PCI can be expressed employing the cell growth percentage in relation to the controls (without PCI) which is easily calculated: [formula]\nA proliferation test with indirect determination of the number of cells by means of tetrazolium salts using the cell line Capan-1 was carried out. This is a human pancreatic adenocarcinoma cell line (ATCC nr. HTB-79), established by Fogh, G. et al. (1977) J. Natl. Cancer Inst., 58: 209-214, and Fogh, J. et al. (1977) J. Natl. Cancer Inst., 59: 221-226, from a liver metastasis.\nAs it has been explained, the cells were cultivated for 23 days, after which the cell growth was evaluated per well by means of tetrazolium salts. The results obtained are expressed in Table 3, where the average, the standard deviation and the standard error of the cell growth in relation to the controls are shown.", "note": "Positions of bridges follow the written chain, without caps; N, C: chain ends. No end group written: not given here."}
{"substance": "PCI: potato carboxypeptidase inhibitor, isoform IIa, obtained by recombinant DNA techniques in E. coli (SEQ ID NO.2) (EQHADPICNKPCKTHDDCSGAWFCQACWNSARTCGPYVG; disulfide 12-27, 18-34, 8-24)", "values": [{"measurement": "Growth (Percentage in relation to the average of the controls)", "setting": "0.1 µg/mL PCI in the medium, DMEM+10%FBS", "value": 19.4, "unit": "%"}, {"measurement": "Growth (Percentage in relation to the average of the controls)", "setting": "1 µg/mL PCI in the medium", "value": 17.1, "unit": "%"}, {"measurement": "Growth (Percentage in relation to the average of the controls)", "setting": "10 µg/mL PCI in the medium", "value": 50.0, "unit": "%"}, {"measurement": "Growth (Percentage in relation to the average of the controls)", "setting": "50 µg/mL PCI in the medium", "value": 44.8, "unit": "%"}, {"measurement": "Growth (Percentage in relation to the average of the controls)", "setting": "200 µg/mL PCI in the medium", "value": 43.3, "unit": "%"}, {"measurement": "inhibition of the growth", "setting": "concentrations of 0.1 and 1 μg/mL", "value": "higher than 80%"}, {"measurement": "inhibition of the growth", "setting": "concentrations of 10, 50 and 200 μg/mL", "value": "~50", "unit": "%"}]}
